Paper PMC8080067, “Tight binding of cytochrome b5 to cytochrome P450 17A1 is a critical feature of stimulation of C21 steroid lyase activity and androgen synthesis” (The Journal of Biological Chemistry, 2021)
Where a chain is given by its changes, count along the chain named.

Experiments:
P450 17A1 E305G variant = target: T1, P450 17A1 E305G variant (Homo sapiens, UniProt P05093, E305G); test: Steady-state kinetics of steroid 17α-hydroxylation and lyase reactions, reconstituted system
T1 sequence (P05093 1-508 E305G): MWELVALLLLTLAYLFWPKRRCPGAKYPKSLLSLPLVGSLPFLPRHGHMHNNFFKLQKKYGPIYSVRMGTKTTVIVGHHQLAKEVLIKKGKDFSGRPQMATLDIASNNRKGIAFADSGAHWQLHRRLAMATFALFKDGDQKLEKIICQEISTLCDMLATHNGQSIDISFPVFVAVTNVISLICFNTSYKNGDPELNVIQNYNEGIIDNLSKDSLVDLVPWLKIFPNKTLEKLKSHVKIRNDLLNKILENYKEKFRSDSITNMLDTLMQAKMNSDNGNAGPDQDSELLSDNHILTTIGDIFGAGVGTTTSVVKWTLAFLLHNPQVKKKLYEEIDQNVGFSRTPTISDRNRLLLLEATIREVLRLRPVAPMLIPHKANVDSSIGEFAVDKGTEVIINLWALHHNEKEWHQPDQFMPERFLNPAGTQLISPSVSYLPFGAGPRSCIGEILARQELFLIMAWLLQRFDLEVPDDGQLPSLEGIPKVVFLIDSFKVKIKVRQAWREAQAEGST
Experimental: (§1) P450 catalytic activity assays to measure steroid hydroxylation and lyase reactions were carried out as described previously ([23], [37], [64]).
(§2) The reactions were initiated by adding an NADPH-regenerating system (final concentrations of 15 mM glucose 6-phosphate, 1.5 mM NADP^+, and 1 IU ml^−1 glucose 6-phosphate dehydrogenase) ([75]) and terminated by quenching and extracting with 2.0 ml CH2Cl2. Aliquots of the organic phases were dried and then dissolved in 100 μl of a CH3CN/H2O (1:1, v/v) mixture. […] The extraction procedure was then repeated, and the (Δ^4) reaction products were analyzed in a Waters Acquity UPLC system using a BEH C18 octadecylsilane column (2.1 mm × 100 mm, 1.7 μm). The reaction products were resolved using a mobile phase composed of solvents A (70% CH3OH, 30% H2O, v/v) and B (CH3CN), at a flow rate of 0.2 ml min^−1. […] Steady-state kinetic parameters were estimated using nonlinear regression of hyperbolic fits in GraphPad Prism software, with equations used for kcat and the specificity constant kcat/Km ([76]): Y = (ksp ∗ X)/(1 + (ksp ∗ X/kcat)) and then deriving Km by division.

P450 17A1 R347H variant [1] = target: T2, P450 17A1 R347H variant (Homo sapiens, UniProt P05093, R347H); test: as above
T2 sequence (P05093 1-508 R347H): T1 sequence (P05093 1-508 E305G) with G305E, R347H
Experimental: as §1, §2

P450 17A1 R358Q variant = target: T3, P450 17A1 R358Q variant (Homo sapiens, UniProt P05093, R358Q); test: as above
T3 sequence (P05093 1-508 R358Q): T1 sequence (P05093 1-508 E305G) with G305E, R358Q
Experimental: as §1, §2

P450 17A1 R347H variant [2] = target: T2, P450 17A1 R347H variant; test: Substrate-binding spectral titration (type I, ΔA388-A423)
Experimental: The purified enzymes were diluted in 100 mM potassium phosphate buffer (pH 7.4) and divided in two 1.0-ml glass cuvettes. Spectra (350–500 nm) were recorded using an OLIS-DW2 spectrophotometer (On-Line Instrument Systems) with subsequent additions of the substrate. Differences in the absorbance between the wavelength maximum and minimum were plotted versus the substrate concentration ([44]). Kd values were calculated using nonlinear regression analysis in GraphPad Prism software (GraphPad) and the quadratic equation: Y=B+A/2E[(Kd+E+X)−(Kd+E+X)^2−4EX], set in Prism as: Y = B + (A/2) ∗ (1/E) ∗ ((Kd + E + X)-sqrt((Kd + E + X)^ˆ2 - (4 ∗ E ∗ X))).
Figure S2. […] Increasing concentrations of substrates were added to the sample and reference cuvettes in each case.

[3] = lyase reaction (conversion to androstenedione or DHEA)

Row | SMILES | % WT (kcat/Km) (P450 17A1 E305G variant; [3]) [%] | % WT (kcat/Km) (P450 17A1 R347H variant [1]; [3]) [%] | % WT (kcat/Km) (P450 17A1 R358Q variant; [3]) [%] | Kd (P450 17A1 R347H variant [2]) [nM] | % WT (kcat/Km) (P450 17A1 E305G variant; 17α-hydroxylation) [%] | % WT (kcat/Km) (P450 17A1 R347H variant [1]; 17α-hydroxylation) [%] | % WT (kcat/Km) (P450 17A1 R358Q variant; 17α-hydroxylation) [%]
1 | CC(=O)[C@@]1(O)CCC2C3CC=C4C[C@@H](O)CC[C@]4(C)C3CC[C@@]21C (stereo partly drawn) [17α-OH pregnenolone] | 0.7 | 1.1 | 0.6 | 220 ± 100 | – | – | –
2 | CC(=O)[C@H]1CC[C@H]2[C@@H]3CCC4=CC(=O)CC[C@]4(C)[C@H]3CC[C@]12C [Progesterone] | – | – | – | 230 ± 100 | 8 | 4 | 11
3 | CC(=O)C1CCC2C3CC=C4C[C@@H](O)CC[C@]4(C)C3CC[C@]12C (stereo partly drawn) [Pregnenolone] | – | – | – | 120 ± 50 | 0.7 | 19 | 12
